The term IC50 denotes the concentration that gives 50% inhibition.

Consider one compound from patent US20260139006A1, “CYCLIC PEPTIDE AS INHIBITORS OF FREE-LIVING AMOEBA” (Purdue Research Foundation, priority 2024, published 2026).

This data set is described as follows: Mammalian cytotoxicity counter screening (CellTiter-Glo). The class given is cell-based. Particulars: human; read-out: A549 IC50 (cytotoxicity).

Method: Cytotoxicity of the cyclic peptides was also determined by using the CellTiter-Glo 2.0® assay on A549 human lung carcinoma cells. A549 cells were seeded at a concentration of 1.6×10^4 cells/mL in 96-well plates in the presence of serially diluted compounds, as described above. DMSO (1%) and 100 μM of chlorhexidine were used as the negative and positive controls. A549 were grown in F12K medium supplemented with 10% FBS and 1% penicillin/streptomycin antibiotics. […] The total volume of each well was 100 μL, containing 10 μL compounds and 90 μL cells, and plates were incubated at 37° C., 5% CO2 for 72 hours. At the 72-hours time point, CellTiter-Glo 2.0 Reagent® was added to all the wells and read by the SpectraMax® i3X plate reader as described above. Curve fitting using non-linear regression was carried out using the average of replicates and the Levenberg-Marquardt algorithm, using DMSO as the normalization control, as defined in CDD Vault. The selectivity index (SI) was calculated by using the equation: SI=(IC50 of A549's)/(IC50 of Balamuthia mandrillaris) to determine the specificity of inhibitors.

As for `N=C(N)c1ccc(OCCCCCOc2ccc(C(=N)N)cc2)cc1` [pentamidine], the IC50 at 72 h was 12.8 µM.
